# Test: Isolated temperature response of component materials to microwave RF
# Format: physicochemical
# Conditions: 130 Watts for 60 seconds; for P1 60 seconds ° F.: initial 68 ° F.
# Procedure: The microcells were suspended as an aqueous sample while exposed to microwave RF. Both water and mineral oil were evaluated as a liquid medium to expose microcell samples. 500 milligram samples of each microcell component were dispersed in both water and mineral oil and exposed to 130 watts of microwave RF for 60 seconds to determine the preferred fluid medium to carry out the experiment.
# Microwave RF exposure was performed in a Panasonic 1300 Watt Inverter Technology® Microwave Oven Model NN-SN667W at 130 Watts. The oven was retrofitted with all quartz platforms to reduce/eliminate dipole induction heating from standard glass structures. All containment and experimental material other than water or albumen in contact with the experimental samples was microwave transparent. Containment devices such as test tubes, slides, and cover slips were either quartz or microwave transparent plastics. Microwave oven use was limited to less than 90 minutes per test period to reduce/prevent incidental heating of the oven chamber. A 500 milliliter water “reservoir-load” was maintained within the oven chamber to absorb microwave energy and prevent magnetron damage. All tests were run in an environmentally-controlled room at about 65° F. (about 18.3° C.) and 50% RH.
compound,measurement,setting,value
"CC(=O)Nc1ccc(O)cc1 [Acetaminophen, acetaminophen]",ΔT ° F.,500 mg in 10 g Mineral Oil,0 ° F.
same,P1 60 seconds ° F.,500 mg in 10 g Mineral Oil,68 ° F.
same,ΔT ° F.,500 mg in 10 g Water,22 ° F.
same,P1 60 seconds ° F.,500 mg in 10 g Water,90 ° F.
